Two compounds from publication PMC3745399, “An NO Donor Approach to Neuroprotective and Procognitive Estrogen Therapy Overcomes Loss of NO Synthase Function and Potentially Thrombotic Risk” (PLoS ONE, 2013) can be followed below.

Assay [1] deals with C57Bl/6 mice or eNOS(−/−) mice. The assay can be described thus: Step-through passive avoidance (STPA) memory model. The class given is in vivo, mouse. The settings on record: SERM 2 mg/kg; for reversal of scopolamine-induced memory deficit (STPA latency): scopolamine 1 mg/kg i.p., tested 24 h after training; for reversal of scopolamine-induced memory deficit in eNOS KO mice (STPA): scopolamine 1 mg/kg. How it is done: In this assay, memory is tested 24 h after training and since drugs are only administered during training, any side effects, such as sedation, are highly unlikely to confound the testing results. Furthermore, criteria for training are uniform across all treatment groups. Previously, we have shown NO-donors to reverse cognitive deficits induced by attenuation of cholinergic signaling, [51], [52], [53].
Amnestic memory deficit was induced by i.p. injection of either scopolamine (1 mg/kg) or L-NAME (50 mg/kg) 30 min prior to training in C57Bl/6 male mice. SERMs (2 mg/kg) were given 20 min prior to training and latency was assessed 24 h after training with animals being removed from the task if latency >300 s. All SERMs, except F-DMA, restored scopolamine-induced deficits in STPA in C57Bl/6 animals.
All experiments were performed either on 6–8 month old male C57B1/6 mice or eNOS(−/−) animals. Scopolamine (1 mg/kg) or L-NAME (50 mg/kg) were injected (i.p.) 30 min prior to training, while SERMs (2 mg/kg) were injected 20 min prior to training. Mice were placed in the light compartment of the light/dark box, and as soon as they entered the dark compartment, they received an electric shock (0.5 mA, 60 Hz for 2 seconds). This training was repeated until latency to enter the dark side reached 300 s. At 24 h post-training, animals were individually placed in the light compartment and the latency to enter the dark compartment was recorded with a 300 s cutoff. Details of this widely used assay of behavior have been discussed previously for NO-donor compounds [53], [54], [55].

Assay [2] is described as follows: Anticoagulation: PT and aPTT after i.p. dosing. It counts as in vivo, mouse. The settings on record: for PT / aPTT / anticoagulant effect (PT, aPTT) at 3 h: C57Bl/6 mice, 2 mg/kg i.p.; for PT / aPTT: 1 h; for anticoagulation (PT and aPTT) with NOS blockade: L-NAME 50 mg/kg 30 min prior to collection, SERM 2 mg/kg 1 h prior. How it is done:
Figure 6 Effect of SERMs and NO-SERM on […] clotting cascades. Blood was collected by cardiac puncture and PTT and aPTT were determined 1 or 3 h after i.p. drug administration (2 mg/kg).
SERMs were injected (i.p.) into 6–8 month old male C57Bl/6 mice 1 h before blood collection, and L-NAME was injected (i.p.) 30 min before blood collection. The mouse was sedated by exposing it to CO2 until unconscious and blood was collected in 4.5 mL BD Vacutainer Glass Evacuated Blood Collection Tubes (with 0.105 M buffered sodium citrate) by cardiac puncture. The blood samples were centrifuged at 300 g for 30 min to separate the plasma from the blood, and then 200 uL of plasma was taken from each sample and the PT and aPTT were measured using an ACL 7000 Coagulation Analyzer. The analyzer injects […] of PT-fibrinogen (lyophilized rabbit brain calcium thromboplastin with stabilizers, polybrene, buffer and preservatives) to 75 µL of plasma sample to measure the PT, and 75 µL of synthAFAX (0.025 M)+100 µL of CaCl2 (0.02 M) were added to 75 µL of plasma to measure aPTT. The analysis was at 37°C using a photo sensor at λ = 671 nm.

Another assay deals with isolated rings of aortae. Put plainly: Aortic ring relaxation. More on the design: species or system rat. How it is done: Isolated rings of aortae from male Sprague-Dawley rats (250–300 g) were prepared for isometric tension measurements and were equilibrated for 1 h at an optimal resting tension of 10 mN. Tissues were contracted submaximally with 0.3 µM phenylepinephrine, and after 10–15 m cumulative concentration-response curves for SERMs (0.01–30 µM) were obtained. Some aortic ring preparations were denuded of the endothelium, or were treated with 100 µM L-NAME, prior to assessment of SERM-induced relaxation responses.

A short description of assay [3]: NO levels (NOx) in hippocampus and plasma by chemiluminescence. It counts as in vivo, mouse. The note with it: 2 mg/kg i.p., 1 h; for elevation of NOx in hippocampus / elevation of NOx in plasma: WT mice. How it is done:
Brain and plasma NO levels were assessed by measuring metabolic oxidation products, NO2 ^−and NO3 ^− (NOx), using chemiluminescence detection.
Figure 5 Effects of SERM and NO-SERMon NO levels in plasma and brain of WT and eNOS (−/−) mice. Levels of NO were assessed by measuring breakdown products 1 h after i.p. injection of SERMs (2 mg/kg) using chemiluminescence detection.
All experiments were performed on 6–8 month male C57B1/6 mice (Charles River Laboratory) or eNOS(−/−) animals. Animals were injected (i.p.) at various time points before sacrifice at the doses specified. After euthanasia via CO2, plasma was collected, and cortices and hippocampi were collected after PBS perfusion and stored at −80°C. Tissue samples were weighed and extracted with methanol. Plasma samples were extracted with cold acetonitrile. Quantitative analysis of drug concentrations in plasma and brain used internal standards spiked into plasma and brain homogenates before liquid extraction with acetonitrile or methanol, and separation and measurement was performed with LC-MS/MS tandem mass spectrometry. The supernatant (deproteinized) was analyzed by chemiluminescence with SIEVERS 280i nitric oxide analyzer.

The target in the next assay is ERβ (Homo sapiens, UniProt Q92731). Put plainly: ER binding affinity by competitive E2 displacement (ERβ). As to the method: Raloxifene and DMA are structurally related SERMs acting as antagonists of estrogen action in mammary and endometrial cells. […] ER binding affinity was measured by competitive E2 displacement as previously described.
Sequence of ERβ (Q92731 whole entry, species assumed): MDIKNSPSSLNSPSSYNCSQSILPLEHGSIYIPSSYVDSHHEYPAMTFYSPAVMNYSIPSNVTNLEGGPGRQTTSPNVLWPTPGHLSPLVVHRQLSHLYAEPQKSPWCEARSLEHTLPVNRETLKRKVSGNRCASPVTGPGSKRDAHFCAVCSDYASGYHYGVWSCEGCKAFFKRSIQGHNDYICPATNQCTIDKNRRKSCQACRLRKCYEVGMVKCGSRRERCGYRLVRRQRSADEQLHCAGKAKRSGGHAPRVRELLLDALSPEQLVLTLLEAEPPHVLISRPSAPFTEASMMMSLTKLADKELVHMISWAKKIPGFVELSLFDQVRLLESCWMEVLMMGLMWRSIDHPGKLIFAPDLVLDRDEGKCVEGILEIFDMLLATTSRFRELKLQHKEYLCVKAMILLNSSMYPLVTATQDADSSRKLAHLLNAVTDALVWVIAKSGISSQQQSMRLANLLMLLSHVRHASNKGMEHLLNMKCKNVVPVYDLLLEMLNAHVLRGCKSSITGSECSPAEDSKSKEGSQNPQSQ

Read-outs that look alike come from different tables or passages of the source.

On to `O=[N+]([O-])OCCCC1CCN(CCOc2ccc(Oc3c(-c4ccc(O)cc4)sc4cc(O)ccc34)cc2)CC1` [NO-DMA, 3-(1-(2-(4-(6-hydroxy-2-(4-ydroxyphenyl)benzo[b]thiophen-3-yloxy)phenoxy)ethyl)piperidin-4-yl)propyl nitrate], for which, in assay [1] (C57Bl/6 male mice, L-NAME 50 mg/kg i.p.), the “reversal of L-NAME-induced cognitive deficit (STPA latency)” value is “reversed by NO-DMA”. For the same compound, in assay [1] (C57Bl/6 male mice), the “reversal of scopolamine-induced memory deficit (STPA latency)” value is “complete reversal of the memory deficit”. Also, in assay [1], the “reversal of scopolamine-induced memory deficit in eNOS KO mice (STPA)” value is “significantly improved memory”. In addition, in assay [2], the PT result is “significantly increased PT”; the aPTT entry is “significantly increased aPTT”; the “anticoagulant effect (PT, aPTT) at 3 h” value is given as “remained significantly higher than control”; the “anticoagulation (PT and aPTT) with NOS blockade” value is “significantly increased anticoagulation compared to control in both PT and aPTT”. For the same compound, the EC50 in the assay with isolated rings of aortae (endothelium-denuded tissues, read-out: EC50 for relaxation, endothelium-denuded) was found to be 900 ± 690 nM. Further, in the assay with isolated rings of aortae (intact aortic rings), the “efficacy (maximal relaxation)” value is about 100 % relaxation and the “potency relative to DMA” value was “at least ten-fold increased potency”. The concentration giving a half-maximal response (EC50) with isolated rings of aortae (intact aortic rings, read-out: EC50 for relaxation) was 130 ± 90 nM. Further, the EC50 with isolated rings of aortae (tissues treated with L-NAME 100 µM, read-out: EC50 for relaxation, L-NAME) came out at 1000 ± 540 nM. Besides, in assay [3], the “elevation of NOx in hippocampus” value is “greater than twofold elevation” and the “elevation of NOx in plasma” value is given as “greater than twofold elevation”. In assay [3] (eNOS(−/−) mice), the “NOx in hippocampus, eNOS(−/−)” value is reported as “increase NOx significantly, relative to DMA” and the “NOx in plasma, eNOS(−/−)” value was “increase NOx significantly, relative to DMA”. Further, on ERβ, the half-maximal inhibitory concentration (IC50) amounted to 24.4 ± 9.6 nM.

As to `Oc1ccc(-c2sc3cc(O)ccc3c2Oc2ccc(OCCN3CCCCC3)cc2)cc1` [DMA, desmethylarzoxifene], the “reversal of scopolamine-induced memory deficit (STPA latency)” value in assay [1] (C57Bl/6 male mice) is on record as “complete reversal of the memory deficit”. Besides, the “reversal of scopolamine-induced memory deficit in eNOS KO mice (STPA)” value in assay [1] is “not influenced by treatment with DMA”. Further, in assay [2], the PT result is given as “showed a clear trend”; the aPTT result is reported as “significantly increased aPTT”; the “anticoagulant effect (PT, aPTT) at 3 h” value is recorded as “decreased to that of control samples”; the “anticoagulation (PT and aPTT) with NOS blockade” value is listed as “did not persist in the presence of NOS blockade”. Besides, the “efficacy (maximal relaxation)” value in the assay with isolated rings of aortae (intact aortic rings) is listed as about 100 % relaxation. For the same compound, the 50% effective concentration (EC50) in the assay on isolated rings of aortae (intact aortic rings contracted with phenylepinephrine, mean, S.D., read-out: EC50 for relaxation) came to 3500 ± 2500 nM. Besides, the “efficacy after endothelium removal or NOS inhibition” value in the assay on isolated rings of aortae (physical removal of the endothelium or L-NAME) is “significant decrease in the efficacy”. Moreover, in assay [3], the “elevation of NOx in hippocampus” value is given as “greater than twofold elevation” and the “elevation of NOx in plasma” value is “greater than twofold elevation”. This compound also showed a half-maximal inhibitory concentration (IC50) on ERβ of 9.6 ± 1.9 nM.

The EC50 is the concentration needed to bring the measured effect to its halfway point. As a reminder, the IC50 is the concentration needed to halve the response being measured. Read a low IC50 as greater potency in that assay.
